Experimental data: US20150105429A1, “BENZYL SULFONAMIDE DERIVATIVES AS RORC MODULATORS” (Genentech, Inc., priority 2011, published 2015)

Each compound was assayed against T1, RORc ligand binding domain (Homo sapiens, UniProt P51449) (assay: In Vitro RORc Ligand Binding Assay). Conditions: radioligand 25-[3H]hydroxycholesterol 6 nM; 0.6 ug/mL RORc receptor; 3 h at 25° C.; read-out: IC50 values (micromolar) for RORc affinity.
T1 construct: host or cells: E. coli
T1 sequence (P51449 269-508 limits assumed): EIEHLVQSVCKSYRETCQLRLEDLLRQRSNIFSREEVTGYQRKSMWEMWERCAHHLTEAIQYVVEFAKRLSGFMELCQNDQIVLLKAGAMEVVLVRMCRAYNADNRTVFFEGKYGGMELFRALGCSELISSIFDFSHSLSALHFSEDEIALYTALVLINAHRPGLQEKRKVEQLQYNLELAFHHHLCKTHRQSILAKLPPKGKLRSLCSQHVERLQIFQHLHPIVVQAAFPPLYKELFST
Method: This assay was used to determine a compound's potency in inhibiting activity of RORc by determining, Kiapp, IC50, or percent inhibition values.
On day of the assay, 100 uL of 0.05% CHAPS (in deionized H2O) was added to all wells of the GFB Unifilter plate and allowed soak for 1 h. A wash buffer of 50 mM HEPES (pH 7.4), 150 mM NaCl, and 5 mM MgCl2 was prepared to wash the filter plate. To prepare an assay buffer, BSA was added to the wash buffer to reach 0.01% and DTT was added to reach 1 mM.
The 20× compound stocks were diluted in DMSO with Assay Buffer 4-fold to reach 5× the final test concentration in 25% DMSO (10 uL compound+30 uL Assay Buffer). Solutions were mixed by aspiration several times with a pipette set on 50 uL volume. For the assay, 10 uL of 5× compound stock solutions in 25% DMSO were added to the assay plate in duplicate.
For two point screening, 10 mM stock compound solutions were diluted in DMSO to obtain 200 uM (20× the high test concentration) and then diluted 10-fold further to reach 20 uM (20× the low test concentration). The 20× stocks were diluted 4-fold with Assay Buffer (10 uL compound+30 uL Assay Buffer) to reach 5× the test concentrations (50 uM and 5 uM) and 10 uL were added to two assay plates for the duplicate wells. With each concentration tested on 2 plates, each set of 80 compounds used 4 assay plates (1 uM and 10 uM, with n=2).
For 25-hydroxycholesterol in 25% DMSO/75% Assay Buffer; 10 uL per well was used for NSB samples. Wells for Total Binding and No Receptor sample determination contained 10 uL of 25% DMSO/75% Assay Buffer per well.
Radioligand (25-[^3H]hydroxycholesterol) Preparation
Added 20 uL to all wells to reach 6 nM final in the assay.
Stock receptor solution was diluted in assay buffer to obtain 1.5 ug/mL in Assay Buffer. 20 uL was added to all wells. For No R samples, 20 uL Assay Buffer was substituted for receptor solution.
Assay plates were 96-well polypropylene V-bottom plates. 10 uL of 5× compound in 25% DMSO/75% Assay Buffer was added to Test wells. 10 uL of 25% DMSO/75% Assay Buffer was added to Total Binding or No Receptor wells. 10 uL of 5 uM 25-hydroxycholesterol in 25% DMSO/75% Assay Buffer was added to NSB wells. […] 20 uL of 1.5 ug/mL RORc receptor was added to wells (or 40 uL Assay Buffer to No R wells). Following addition to the wells, the plates were incubated 3 h at 25° C.
Using a Packard Filtermate Harvester, the filter plates were washed 4 times following transfer of the incubated samples. Plates were dry-filtered completely (2 h at 50° C. or overnight at room temperature). 50 uL Microscint 0 was added to all wells and read on Topcount protocol Inverted.
Final concentrations were as follows: 50 mM HEPES buffer (pH 7.4); 150 mM NaCl; 1 mM DTT; 5 mM MgCl2; 0.01% BSA; 5% DMSO; 0.6 ug/mL RORc receptor; 6 nM 25-[^3H]hydroxycholesterol. For NSB wells, 1 uM 25-hydroxycholesterol was also present.

Compound | IC50 [µM]
CNS(=O)(=O)c1ccc(-c2ccc(CN(CC(C)C)S(=O)(=O)Cc3ccccc3)cc2)cc1 [Compound 9, 4′-[(Isobutyl-phenylmethanesulfonyl-amino)-methyl]-biphenyl-4-sulfonic acid methylamide] | 0.065
Cc1n[nH]c(C)c1-c1ccc(CN(CC(C)C)S(=O)(=O)Cc2ccccc2)cc1 [Compound 10, N-[4-(3,5-Dimethyl-1H-pyrazol-4-yl)-benzyl]-N-isobutyl-C-phenyl-methanesulfonamide] | 2.8
CC(C)CN([C@H](C)c1ccc(-c2ccc(C(N)=O)cc2)cc1)S(=O)(=O)Cc1ccccc1 [Compound 14, 4′-[(R)-1-(Isobutyl-phenylmethanesulfonyl-amino)-ethyl]-biphenyl-4-carboxylic acid amide] | 0.128
CC(C)CN([C@H](C)c1ccc(-c2ccc(NS(C)(=O)=O)cc2)cc1)S(=O)(=O)Cc1ccccc1 [Compound 15, N-Isobutyl-N-[(R)-1-(4′-methanesulfonylamino-biphenyl-4-yl)-ethyl]-C-phenyl-methanesulfonamide] | 0.696
CC(C)CN([C@@H](C)c1ccc(-c2ccc(C(N)=O)cc2)cc1)S(=O)(=O)Cc1ccccc1 [Compound 17, 4′-[(S)-1-(Isobutyl-phenylmethanesulfonyl-amino)-ethyl]-biphenyl-4-carboxylic acid amide] | 0.154
CC(C)CN([C@@H](C)c1ccc(-c2cccc(S(C)(=O)=O)c2)cc1)S(=O)(=O)Cc1ccccc1 [Compound 19, N-Isobutyl-N-[(S)-1-(3′-methanesulfonyl-biphenyl-4-yl)-ethyl]-C-phenyl-methanesulfonamide] | 0.691
CC(C)CN([C@@H](C)c1ccc(-c2ccc(NS(C)(=O)=O)cc2)cc1)S(=O)(=O)Cc1ccccc1 [Compound 20, N-Isobutyl-N-[(S)-1-(4′-methanesulfonylamino-biphenyl-4-yl)-ethyl]-C-phenyl-methanesulfonamide] | 0.251
CC(C)CN([C@H](C)c1ccc(-c2ccc(S(C)(=O)=O)cc2)cc1)S(=O)(=O)Cc1ccccc1 [Compound 21, N-Isobutyl-N-[(R)-1-(4′-methanesulfonyl-biphenyl-4-yl)-ethyl]-C-phenyl-methanesulfonamide] | 2.9
O=S(=O)(Cc1ccccc1)N(Cc1ccc(-c2ccncc2)cc1F)CC(F)(F)F [Compound 23, N-(2-Fluoro-4-pyridin-4-yl-benzyl)-C-phenyl-N-(2,2,2-trifluoro-ethyl)-methanesulfonamide] | 0.282
Cc1cc(-c2ccc(S(C)(=O)=O)cc2)ccc1CN(CC(C)C)S(=O)(=O)Cc1ccccc1 [Compound 25, N-Isobutyl-N-(4′-methanesulfonyl-3-methyl-biphenyl-4-ylmethyl)-C-phenyl-methanesulfonamide] | 0.057
CC(C)CN(Cc1ccc(-c2cccc(S(C)(=O)=O)c2)s1)S(=O)(=O)c1cccc(Cl)c1 [Compound 26, 3-Chloro-N-isobutyl-N-[5-(3-methanesulfonyl-phenyl)-thiophen-2-ylmethyl]-benzenesulfonamide] | 0.188
CC(C)CN(Cc1ccc(-c2cccc(S(C)(=O)=O)c2)s1)S(=O)(=O)Cc1ccccc1F [Compound 29, C-(2-Fluoro-phenyl)-N-isobutyl-N-[5-(3-methanesulfonyl-phenyl)-thiophen-2-ylmethyl]-methanesulfonamide] | 1.5
CC(C)CN(Cc1ccc(-c2cccc(S(C)(=O)=O)c2)s1)S(=O)(=O)Cc1cccc(F)c1 [Compound 31, C-(3-Fluoro-phenyl)-N-isobutyl-N-[5-(3-methanesulfonyl-phenyl)-thiophen-2-ylmethyl]-methanesulfonamide] | 1.3
Cc1n[nH]c(C)c1S(=O)(=O)N(Cc1ccc(-c2cccc(S(C)(=O)=O)c2)s1)CC(C)C [Compound 32, 3,5-Dimethyl-1H-pyrazole-4-sulfonic acid isobutyl-[5-(3-methanesulfonyl-phenyl)-thiophen-2-ylmethyl]-amide] | 2.5
CC(C)CN(Cc1ccc(-c2cccc(S(C)(=O)=O)c2)s1)S(=O)(=O)c1cccc(C#N)c1 [Compound 33, 3-Cyano-N-isobutyl-N-[5-(3-methanesulfonyl-phenyl)-thiophen-2-ylmethyl]-benzenesulfonamide] | 2.4
CCn1cc(-c2ccc(CN(CC(C)C)S(=O)(=O)Cc3ccccc3)s2)cn1 [Compound 36, N-[5-(1-Ethyl-1H-pyrazol-4-yl)-thiophen-2-ylmethyl]-N-isobutyl-C-phenyl-methanesulfonamide] | 0.598

More lines, in order of falling IC50, values ahead:

IC50 [µM] | Compound
3.7 | CC(C)CN(Cc1ccc(-c2cccc(S(C)(=O)=O)c2)s1)S(=O)(=O)c1ccccc1C#N [Compound 27, 2-Cyano-N-isobutyl-N-[5-(3-methanesulfonyl-phenyl)-thiophen-2-ylmethyl]-benzenesulfonamide]
2.8 | CS(=O)(=O)c1cccc(-c2ccc(CN(Cc3ccc(F)cc3Cl)S(=O)(=O)Cc3ccccc3)cc2)c1 [Compound 2, N-(2-Chloro-4-fluoro-benzyl)-N-(3′-methanesulfonyl-biphenyl-4-ylmethyl)-C-phenyl-methanesulfonamide]
1.7 | Cc1nn(C)c(C)c1-c1ccc(CN(CC(C)C)S(=O)(=O)Cc2ccccc2)cc1 [Compound 3, N-Isobutyl-C-phenyl-N-[4-(1,3,5-trimethyl-1H-pyrazol-4-yl)-benzyl]-methanesulfonamide]
1.7 | CC(C)CN(Cc1ccc(-c2cccnc2)s1)S(=O)(=O)Cc1ccccc1 [Compound 37, N-Isobutyl-C-phenyl-N-(5-pyridin-3-yl-thiophen-2-ylmethyl)-methanesulfonamide]
1.4 | CC(C)CN(Cc1ccc(-c2cccc(S(C)(=O)=O)c2)s1)S(=O)(=O)Cc1ccc(F)cc1 [Compound 30, C-(4-Fluoro-phenyl)-N-isobutyl-N-[5-(3-methanesulfonyl-phenyl)-thiophen-2-ylmethyl]-methanesulfonamide]
0.963 | CC(C)CN(Cc1ccc(-c2ccc(C(=O)N(C)C)cc2)cc1)S(=O)(=O)Cc1ccccc1 [Compound 5, 4′-[(Isobutyl-phenylmethanesulfonyl-amino)-methyl]-biphenyl-4-carboxylic acid dimethylamide]
0.476 | CC(C)CN(Cc1ccc(-c2cccc(S(C)(=O)=O)c2)s1)S(=O)(=O)c1ccccc1 [Compound 28, N-Isobutyl-N-[5-(3-methanesulfonyl-phenyl)-thiophen-2-ylmethyl]-benzenesulfonamide]
0.365 | CC(C)CN(Cc1ccc(-c2cccc(S(C)(=O)=O)c2)cc1)S(=O)(=O)Cc1ccccc1 [Compound 1, N-Isobutyl-N-(3′-methanesulfonyl-biphenyl-4-ylmethyl)-C-phenyl-methanesulfonamide]
0.168 | CC(C)CN([C@@H](C)c1ccc(-c2ccc(S(C)(=O)=O)cc2)cc1)S(=O)(=O)Cc1ccccc1 [Compound 18, N-Isobutyl-N-[(S)-1-(4′-methanesulfonyl-biphenyl-4-yl)-ethyl]-C-phenyl-methanesulfonamide]
0.019 | CC(C)CN(Cc1ccc(-c2ccc(S(C)(=O)=O)cc2)cc1F)S(=O)(=O)Cc1ccccc1 [Compound 22, N-(3-Fluoro-4′-methanesulfonyl-biphenyl-4-ylmethyl)-N-isobutyl-C-phenyl-methanesulfonamide]
0.011 | Cc1cc(CN(CC(C)C)S(=O)(=O)Cc2ccccc2)ccc1-c1ccc(S(C)(=O)=O)cc1 [Compound 24, N-Isobutyl-N-(4′-methanesulfonyl-2-methyl-biphenyl-4-ylmethyl)-C-phenyl-methanesulfonamide]
